The subject of one data set is HSV-1. Kind of data set: In vitro activity, HSV-1 infected Vero cells. The format is cell-based. The conditions noted are these: Human alphaherpesvirus 1, Vero. As for the experimental part: (§1) The in vitro activity of the new compounds was measured as described in WO2017/174640 and in WO2019/068817.
In the next data set the test system is HSV-2. Kind of data set: In vitro activity, HSV-2 infected Vero cells. Format: cell-based. Conditions: Human alphaherpesvirus 2, Vero. As for the experimental part: as §1
In another data set the test system is HSV-1 ACV resistant. Briefly: In vitro activity, HSV-1 ACV resistant. Format: cell-based. The conditions noted are these: Human alphaherpesvirus 1. As for the experimental part:
as §1

For data set [1] the following is noted: described in WO2019/068817; cited from earlier work.
For the next data set, the system named is carboanhydrase. The conditions noted are these: described in WO2019/068817; cited from earlier work.

With `Cc1nc(N(C)C(=O)C2Cc3ccc(-c4cc(F)ccc4F)cc3C2)sc1S(C)(=N)=O` (racemic) [Example 4, 5-(2,5-Difluorophenyl)-N-methyl-N-(4-methyl-5-(S-methylsulfonimidoyl)thiazol-2-yl)-2,3-dihydro-1H-indene-2-carboxamide], the values for the IC50 in the data set on HSV-1, with HSV-2 and with HSV-1 ACV resistant were 750 nM, 1500 nM and 750 nM, respectively.
On to `Nc1nc2c(ncn2COCCO)c(=O)[nH]1` [Acyclovir, reference compound], for which the half-maximal inhibitory concentration (IC50) with HSV-1 is 500 to 3000 nM; in the data set with HSV-2 it was 500 to 3000 nM; in the data set with HSV-1 ACV resistant, more than 25000 nM.
`Cc1nc(N(C)C(=O)Cc2ccc(-c3cc(F)ccc3F)cc2)sc1[S@@](C)(=N)=O` [drawing 1]: the brain penetration result in data set [1] is recorded as “improved brain penetration”. In addition, the off-target carboanhydrase activity entry with carboanhydrase is “no off-target carboanhydrase activity”.

Values taken from US20240408068A1, “Helicase Primase Inhibitors For Treating Cancer In A Combination Therapy With Oncolytic Viruses” (priority 2018, published 2024).
